From article PMC3458020, “High-Throughput Screening for Novel Inhibitors of Neisseria gonorrhoeae Penicillin-Binding Protein 2” (PLoS ONE, 2012)
Read-outs that look alike come from different tables or passages of the source.

Legend:
N. gonorrhoeae FA19 = assay: MIC on GCB agar plates, strain FA19; format: cell-based; settings: Neisseria gonorrhoeae
Method: (§1) Three strains of N. gonorrhoeae were used in susceptibility tests: 1) FA19, a penicillin-and cephalosporin-susceptible strain; 2) FA6140, a penicillin-resistant but cephalosporin-susceptible strain; and 3) 35/02, a penicillin-resistant and cephalosporin intermediate-resistant strain. The disc diffusion zone method was applied for preliminary testing of “hits” identified in the screening process. For this method, 100 µl of a cell suspension (∼1×10^7 bacteria) was added to 3 ml of GCB top agar (GC Broth containing 0.75% agar) at 50 °C, which was then added to GCB plates and allowed to solidify. Five µl of each compound (5 µg) was added separately to antibiotic susceptibility discs (BBL™, BD, Franklin Lakes, NJ), the discs were placed on top of plates, and the plates were incubated overnight in a 4% CO2 incubator at 37 °C. Those compounds that produced a visible zone of inhibition were then tested for their MICs on agar plates as described. Briefly, GCB agar plates containing increasing amounts of the tested compounds were spotted with 5×10^4 cells. The lowest concentration of the test compound that prevented growth of <5 colonies was defined as the MIC. These experiments were repeated three times, with each experiment producing similar results.

N. gonorrhoeae PBP 2 [1] = target: T1, N. gonorrhoeae PBP 2 (Neisseria gonorrhoeae, UniProt P08149); assay: FP high-throughput screening assay (Bocillin-FL binding to PBP 2); parameters: Inhibition (%) of Bocillin-FL binding to PBP 2: concentration or dose not given beside the values; settings: four replicates; for Compound (mP) (mean ± SD): FP signal of individual compound with PBP 2 and Bocillin-FL; for Inhibition (%) of Bocillin-FL binding to PBP 2: individual compounds
T1 construct: A soluble construct of wild-type PBP 2; made in house
Method: (§2) A soluble construct of wild-type PBP 2 from the penicillin-susceptible strain of N. gonorrhoeae FA19 was expressed and purified as described previously. Bocillin FL™ was obtained from Invitrogen Inc. (Carlsbad, CA). Penicillin G and γ-Globulins from bovine blood (BGG) were purchased from Sigma (St. Louis, MO). Prior to use, all reagents were diluted in an assay buffer comprising 50 mM potassium phosphate, pH 8, and 0.1 mg/ml BGG. The DIVERSet library of 50,080 small lead compounds from ChemBridge Corporation (San Diego, CA) was provided by the MUSC Drug Discovery Core (DDC). Three laboratory strains of N. gonorrhoeae–FA19 [28], penicillin-resistant FA6140 [29], and cephalosporin-intermediate resistant Ceph^I strain 35/02 [30]–were from the laboratory collection of R. Nicholas (UNC-Chapel Hill).
(§3) Measurements of fluorescence and FP were performed on a Spectramax M5 microplate reader (Molecular Devices, Sunnyvale, CA) with excitation and emission wavelengths of 485 nm and 520 nm, respectively, using a 515 nm filter to block residual excitation light and to minimize background interference. Black, shallow 384-well micro plates (ProxiPlate ™ –384 F Plus, PerkinElmer) were used to record data. To minimize the polarization effects from any fluorophore bound to the surface of the well, both excitation and emission data were recorded from the top of the well. Reading time was 100 ms per well. Fluorescence polarization was quantified in millipolarization units (mP) according to the equation, mP = 1000×[(Iv − G.Ih)/(Iv + G.Ih)], where Iv and Ih are parallel and perpendicular emission intensity measurements, respectively, corrected for background (buffer), and G is the instrument-dependent correction coefficient, defined as a ratio of sensitivities of the detection system for vertically and horizontally polarized light. Using the equation G = Iv/Ih and SoftMax® Pro Data Acquisition & Analysis Software (Molecular Devices, Sunnyvale, CA), the G-factor was determined with dilution series of Bocillin-FL-only (free tracer). The assay window (ΔmP) was defined as the difference between protein-tracer sample and free-tracer, i.e. ΔmP = mPs – mPfree, and is a measure of the maximum specific binding.
HTS screening against the ChemBridge DIVERSet library was carried out under the following conditions: 1 µl of each compound (10% DMSO final) in duplicate was pre-incubated with 9 µl of PBP 2 for 1 h at room temperature, followed by additional 30 min incubation with 2 µl Bocillin-FL (0.87 µM PBP2∶ 1 µM Bocillin-FL final). In addition to samples with the compounds, each plate also contained 2 background wells (12 µl buffer only), and at least 4 wells each for Pc, Nc, and Dc reactions. All samples used for background measurements or controls included 10% DMSO. Initial screening was carried out with 10 mM cocktails of 10 compounds (giving a final concentration of 100 µM for each compound). […] The auto fluorescence of each compound was also tested individually.

N. gonorrhoeae PBP 2 [2] = target: T1, N. gonorrhoeae PBP 2; assay: FP-based concentration-response competition assay with Bocillin-FL; format: binding; settings: 1 µM PBP 2, 1 µM Bocillin-FL
Method: as §2, §3
To evaluate the performance of the assay, steady-state concentration-response experiments were carried out using penicillin G in a competition assay with Bocillin-FL. Penicillin G (0.05–1000 µM) was mixed with 1 µM PBP 2 and 1 µM Bocillin-FL, followed by a 1 hr incubation. The positive (Pc) and negative (Nc) controls were defined as the FP of the Bocillin-FL - protein and of the free tracer, respectively, in the absence of penicillin G. The FP of the Bocillin-FL - protein at 100 µM penicillin G was defined as a displaced tracer control (Dc). Since DMSO was used as a solvent in the compound library, the effect of 10% DMSO on the FP-binding assay was also determined. Data points were normalized to the maximum specific binding, which defines complete saturation of PBP 2 by Bocillin-FL in the absence of penicillin G, and IC50 values were determined using non-linear regression analysis using GraphPad Prism version 4.00 for Windows (GraphPad Software, Inc, San Diego, CA).
For the FP experiments, 0.01–200 µM of each potential hit was incubated with PBP 2 (1 µM) for 1 h, followed by an additional 30 min incubation with 1 µM Bocillin-FL to detect the residual activity of the labeled penicillin binding. For the SDS-PAGE-based concentration-response experiments, PBP 2 (1 µM) in 50 mM sodium phosphate, 0.01% Triton X-100, pH 8 was incubated with 0.05–1000 µM of a compound for 1 h, followed by additional 15 min incubation with 10 µM Bocillin-FL. The reaction was stopped by mixing each sample with 5 X SDS-loading buffer, followed by boiling for 2 min. The samples were submitted to electrophoresis on 10% Mini-Protean TGX™ SDS-PAGE gels (Bio-Rad, Hercules, CA) to separate bound PBP 2 from free ligand. […]

N. gonorrhoeae 35/02 = assay: MIC on GCB agar plates, strain 35/02; format: cell-based; settings: Neisseria gonorrhoeae
Method: as §1

N. gonorrhoeae FA6140 = assay: MIC on GCB agar plates, strain FA6140; format: cell-based; settings: Neisseria gonorrhoeae
Method: as §1

N. gonorrhoeae PBP 2 [3] = target: T1, N. gonorrhoeae PBP 2; assay: SDS-PAGE-based concentration-response assay with Bocillin-FL (0.01% Triton X-100); format: binding
Method: as §2
For the FP experiments, 0.01–200 µM of each potential hit was incubated with PBP 2 (1 µM) for 1 h, followed by an additional 30 min incubation with 1 µM Bocillin-FL to detect the residual activity of the labeled penicillin binding. For the SDS-PAGE-based concentration-response experiments, PBP 2 (1 µM) in 50 mM sodium phosphate, 0.01% Triton X-100, pH 8 was incubated with 0.05–1000 µM of a compound for 1 h, followed by additional 15 min incubation with 10 µM Bocillin-FL. The reaction was stopped by mixing each sample with 5 X SDS-loading buffer, followed by boiling for 2 min. The samples were submitted to electrophoresis on 10% Mini-Protean TGX™ SDS-PAGE gels (Bio-Rad, Hercules, CA) to separate bound PBP 2 from free ligand. At least two independent reactions were performed in duplicate at each concentration of an inhibitor. Gels were visualized by UV using a Kodak EDAS 290 imaging system (Scientific Imaging Systems Eastman Kodak, New Haven, CT, USA) and the protein bands were stained with Coomassie to verify equal loading. Densitometry was performed with ImageJ 1.37v program (National Institutes of Health, USA, http://rsb.info.nih.gov/ij/). In both methods, data points were normalized to the maximum value of the fluorescence intensity, which defines complete saturation of PBP 2 by Bocillin-FL in the absence of compound, and IC50 values of the inhibitors were defined as the concentration of a compound at 50% of the residual activity of Bocillin-FL and calculated using GraphPad Prism (see above).

PBP 2 = target: T2, PBP 2 (Neisseria gonorrhoeae, UniProt P08149); assay: Mass spectrometry test for covalent interaction with PBP 2; settings: data not shown
T2 construct: A soluble construct of wild-type PBP 2; made in house

[4] = penicillin- and cephalosporin-susceptible strain FA19, read-out: MIC FA19
[5] = IC50 measured by FP, 0.01–200 µM compound, four replicates
[6] = penicillin-resistant, cephalosporin intermediate-resistant strain 35/02, read-out: MIC 35/02
[7] = penicillin-resistant, cephalosporin-susceptible strain FA6140, read-out: MIC FA6140
[8] = IC50, SDS-PAGE assay, 1 µM PBP 2, 10 µM Bocillin-FL, 0.01% Triton X-100
[9] = IC50 measured by SDS-PAGE, 0.01% Triton X-100, 1 µM PBP 2, 10 µM Bocillin-FL, two independent experiments

T1 sequence (P08149 44-581 limits assumed): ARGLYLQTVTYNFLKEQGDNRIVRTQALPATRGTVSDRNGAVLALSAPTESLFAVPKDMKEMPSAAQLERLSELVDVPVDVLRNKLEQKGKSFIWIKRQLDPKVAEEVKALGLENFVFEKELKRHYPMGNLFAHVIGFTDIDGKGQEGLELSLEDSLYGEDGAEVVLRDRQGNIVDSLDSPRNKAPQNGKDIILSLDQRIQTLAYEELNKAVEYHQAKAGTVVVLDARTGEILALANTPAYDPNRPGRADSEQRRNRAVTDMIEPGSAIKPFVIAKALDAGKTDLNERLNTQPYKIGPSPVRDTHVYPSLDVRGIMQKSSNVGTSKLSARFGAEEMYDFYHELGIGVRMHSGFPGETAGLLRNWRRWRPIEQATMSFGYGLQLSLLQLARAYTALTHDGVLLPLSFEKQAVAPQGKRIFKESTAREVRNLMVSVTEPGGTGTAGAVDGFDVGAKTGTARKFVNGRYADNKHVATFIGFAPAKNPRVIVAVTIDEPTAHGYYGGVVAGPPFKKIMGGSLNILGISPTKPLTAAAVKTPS
T2 sequence (P08149 44-581 limits assumed): as above

SMILES	MIC (N. gonorrhoeae FA19; [4]) [µg/mL]	Compound (mP) (mean ± SD) (N. gonorrhoeae PBP 2 [1])	Inhibition (%) of Bocillin-FL binding to PBP 2 (N. gonorrhoeae PBP 2 [1]) [%]	IC50 (N. gonorrhoeae PBP 2 [2]; [5]) [µM]	MIC (N. gonorrhoeae 35/02; [6]) [µg/mL]	MIC (N. gonorrhoeae FA6140; [7]) [µg/mL]	IC50 (N. gonorrhoeae PBP 2 [3]; [8]) [µM]	IC50 (N. gonorrhoeae PBP 2 [3]; [9]) [µM]	IC50 (N. gonorrhoeae PBP 2 [2]; IC50 of penicillin G for PBP 2 (FP-based competition assay), with 10% DMSO) [µM]	IC50 (N. gonorrhoeae PBP 2 [2]; IC50 of penicillin G for PBP 2 (FP-based competition assay), without DMSO) [µM]	MIC (N. gonorrhoeae FA19; FA19, read-out: MIC FA19) [µg/mL]	MIC (N. gonorrhoeae 35/02; 35/02, read-out: MIC 35/02) [µg/mL]	MIC (N. gonorrhoeae FA6140; FA6140, read-out: MIC FA6140) [µg/mL]	MIC (N. gonorrhoeae FA19; strain FA19, MIC given in µM, read-out: MIC FA19) [µM]	MIC (N. gonorrhoeae 35/02; strain 35/02, MIC given in µM, read-out: MIC 35/02) [µM]	MIC (N. gonorrhoeae FA6140; strain FA6140, MIC given in µM, read-out: MIC FA6140) [µM]	IC50 (N. gonorrhoeae PBP 2 [3]; IC50, SDS-PAGE assay, same IC50 given in µg/ml) [µM]	Covalent interaction with PBP 2 (mass of the protein) (PBP 2)
O=Cc1cc(Cc2ccccc2)cc([N+](=O)[O-])c1O [Compound 2]	4	60.4±20.3	85.8	330	8	16	128	128										
CC1(C)S[C@@H]2[C@H](NC(=O)Cc3ccccc3)C(=O)N2[C@H]1C(=O)O [Penicillin G, reference compound]									1	1.4								
O=c1sc2ccccc2c(O)c1C(c1ccccc1)c1c(O)c2ccccc2sc1=O [Compound 6]		54.6±3.2	89.5	50.9			49	49.3			4	8	8					
O=S(=O)(Nc1ccc(O)c2ccccc12)c1cccc2ccccc12 [Compound 4]	16	35.6±2.1	105.4	51.4	16	16	50	50.2										
CCc1ccc(O)c(/N=C/c2cc(I)cc(I)c2O)c1 [Compound 1]	4	31.4±0.1	108.2	114	16	16	221	221										
CCc1ccc(S(=O)(=O)Nc2ccc(O)c3ccccc23)cc1 [Compound 5]	8	43.3±0.8	97.6	52.1	16	16	56	56.3										
CN1C(=O)/C(=C2\SC(=S)NC2=O)c2cc(Br)ccc21 [Compound 7]	2	45.2±20.2	96.6	11.3	8	8	153	153						5.6	23.4	23.4	152	no increase in mass of the protein was observed
Sc1nnc(-c2ccc(Cl)cc2Cl)n1/N=C/C=C/c1ccco1 [Compound 3]	16	65.7±12.4	81.8	129	32	32	898											
